Here are results for four compounds from article PMC11428031, “Discovery of selective LATS inhibitors via scaffold hopping: enhancing drug-likeness and kinase selectivity for potential applications in regenerative medicine” (RSC Medicinal Chemistry, 2024).

Data set [1] can be described thus: Liver microsomal phase I stability, human. The settings on record: for HLM phase I stability (% remaining after 30 min): human liver microsomes 0.5 mg/mL, 1 μM compound, NADPH, 37 °C, mean ± SD, n=3; for Stability in human liver microsomes relative to 1, Truli: experimental values of Table 4. (Microsomes from liver hold many membrane-bound enzymes, among them those of drug oxidation.)

The nature of data set [2]: in vitro. The settings on record: mouse, liver microsomes.
Data set [3] can be described thus: physchem. The following applies: D2O (deuterium oxide).
Data set [4] in a line: in vitro. The following applies: human, liver microsomes.
In data set [5] the test system is 321 protein kinases. Details: method as in PMID 35231442. The following applies: out of 321 tested protein kinases; cited from earlier work.
Data set [6] can be described thus: Liver microsomal phase I stability, mouse. The following applies: mouse liver microsomes 0.5 mg/mL, 1 μM compound, NADPH, 37 °C, mean ± SD, n=3.
Data set [7] is described as follows: In vivo pharmacokinetics in male mice. The following applies: for Ft: IP; for half-life: T1/2, male mice; for clearance: CL.
Method: All animal procedures were performed in accordance with the Guidelines for Care and Use of Laboratory Animals of Korea Research Institute of Chemical Technology and approved by the Animal Ethics Committee of Korea Research Institute of Chemical Technology.
Data set [8] has as its target T1, DMPK (Homo sapiens, UniProt Q09013).
T1 sequence (Q09013 1-629): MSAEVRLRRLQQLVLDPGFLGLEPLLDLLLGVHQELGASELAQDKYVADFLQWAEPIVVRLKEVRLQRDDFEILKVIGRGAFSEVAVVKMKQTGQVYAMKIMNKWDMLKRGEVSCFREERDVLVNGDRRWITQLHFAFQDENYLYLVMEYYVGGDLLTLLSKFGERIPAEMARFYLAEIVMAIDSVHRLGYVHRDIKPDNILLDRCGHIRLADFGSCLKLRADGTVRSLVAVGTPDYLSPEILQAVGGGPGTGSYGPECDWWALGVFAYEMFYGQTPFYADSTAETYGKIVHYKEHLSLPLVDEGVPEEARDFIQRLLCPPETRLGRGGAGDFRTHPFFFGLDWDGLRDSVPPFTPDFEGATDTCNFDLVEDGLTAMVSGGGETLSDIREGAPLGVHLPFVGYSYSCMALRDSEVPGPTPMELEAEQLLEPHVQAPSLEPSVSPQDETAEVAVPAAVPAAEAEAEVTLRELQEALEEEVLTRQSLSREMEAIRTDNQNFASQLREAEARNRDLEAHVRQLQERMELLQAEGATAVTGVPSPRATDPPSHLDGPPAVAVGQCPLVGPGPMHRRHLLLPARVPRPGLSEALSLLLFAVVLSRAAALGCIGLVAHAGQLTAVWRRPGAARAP
Kind of data set: KINOMEscan scanMAX binding, DMPK. The following applies: 100 nM compound; lower = stronger interaction.

The subject of data set [9] is 468 kinases. Kind of data set: KINOMEscan scanMAX kinase profiling, selectivity over the panel. The settings on record: 100 nM, of 403 non-mutant kinases. The class given is binding.
Data set [10] has as its target T2, YSK4 (Homo sapiens, UniProt Q56UN5).
T2 sequence (Q56UN5 1-1328): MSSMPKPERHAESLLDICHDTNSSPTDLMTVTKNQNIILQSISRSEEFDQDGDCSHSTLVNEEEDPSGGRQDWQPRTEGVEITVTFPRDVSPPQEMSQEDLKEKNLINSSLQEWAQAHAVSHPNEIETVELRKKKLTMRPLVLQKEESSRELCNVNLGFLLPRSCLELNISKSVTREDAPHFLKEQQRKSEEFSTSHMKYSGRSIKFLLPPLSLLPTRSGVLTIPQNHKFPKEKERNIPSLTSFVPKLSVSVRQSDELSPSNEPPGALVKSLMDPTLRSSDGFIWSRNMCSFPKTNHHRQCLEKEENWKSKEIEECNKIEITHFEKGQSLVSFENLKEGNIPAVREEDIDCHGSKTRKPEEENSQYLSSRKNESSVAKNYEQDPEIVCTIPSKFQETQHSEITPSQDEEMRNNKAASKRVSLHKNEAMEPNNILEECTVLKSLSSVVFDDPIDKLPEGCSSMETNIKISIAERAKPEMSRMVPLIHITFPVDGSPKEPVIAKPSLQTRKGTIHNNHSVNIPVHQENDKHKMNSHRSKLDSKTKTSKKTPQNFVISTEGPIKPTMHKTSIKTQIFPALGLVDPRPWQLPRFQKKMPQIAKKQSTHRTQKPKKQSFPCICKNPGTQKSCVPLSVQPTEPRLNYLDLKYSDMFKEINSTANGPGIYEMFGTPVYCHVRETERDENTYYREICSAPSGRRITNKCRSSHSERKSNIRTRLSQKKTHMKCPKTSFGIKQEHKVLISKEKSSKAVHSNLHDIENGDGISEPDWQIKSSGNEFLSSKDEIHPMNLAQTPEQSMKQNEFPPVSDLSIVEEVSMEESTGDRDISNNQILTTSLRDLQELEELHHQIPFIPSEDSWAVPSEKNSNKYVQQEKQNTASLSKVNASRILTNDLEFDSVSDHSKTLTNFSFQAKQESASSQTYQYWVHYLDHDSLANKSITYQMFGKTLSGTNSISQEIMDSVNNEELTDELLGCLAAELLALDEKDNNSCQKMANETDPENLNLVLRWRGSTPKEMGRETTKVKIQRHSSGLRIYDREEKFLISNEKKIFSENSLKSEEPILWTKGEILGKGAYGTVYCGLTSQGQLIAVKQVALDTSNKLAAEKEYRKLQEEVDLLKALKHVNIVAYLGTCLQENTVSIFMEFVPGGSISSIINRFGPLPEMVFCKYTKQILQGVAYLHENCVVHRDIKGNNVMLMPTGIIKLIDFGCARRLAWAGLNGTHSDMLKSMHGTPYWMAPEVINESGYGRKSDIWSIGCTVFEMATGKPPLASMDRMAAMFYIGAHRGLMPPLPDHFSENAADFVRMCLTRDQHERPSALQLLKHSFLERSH
The data set can be described thus: KINOMEscan scanMAX binding, YSK4. The settings on record: 100 nM compound; lower = stronger interaction.

Where [11] appears, read: male, mouse, plasma, ip, 10 mg/kg.
Where [12] appears, read: male, mouse, plasma, iv, 5 mg/kg.
The mark [13] stands for this setting: male, mouse, plasma, iv, 5 mg/kg, male mice.
Setting [14] is: male, mouse, plasma, po, 20 mg/kg.

In brackets after ≈: the same amount, converted by molar mass.

On to `O=C(/N=c1\sccn1Cc1ccccc1)c1c[nH]c2ncccc12` [1 (Truli), (Z)-N-(3-benzylthiazol-2(3H)-ylidene)-1H-pyrrolo[2,3-b]pyridine-3-carboxamide, reference compound], for which the “HLM phase I stability (% remaining after 30 min)” value in data set [1] is reported as 2.7 ± 0.5%. The values for the fraction remaining at 0.5 h, 1 μM in data set [2] and in data set [4] were 0.18 ± 0.03% and 2.68 ± 0.46%, respectively. The compound also registered a solubility at 24 h in data set [3] of 140 ± 26 µg/mL (≈ 419 µM).
Turning to `CC/C(=N\NC(=O)NCc1cccc(O)c1)c1ccc(O)c(C)c1O` [3 (GA-017)], in data set [5], the “Number of protein kinases against which high potency was exhibited” value is reported as 16.
With `O=C(/N=c1\sccn1Cc1ccccc1)c1c[nH]c2ncncc12` [Compound 5k, (Z)-N-(3-Benzylthiazol-2(3H)-ylidene)-7H-pyrrolo[2,3-d]pyrimidine-5-carboxamide], in [1], the “Stability in human liver microsomes relative to 1, Truli” value is reported as “more than ten times higher stability” and the “HLM phase I stability (% remaining after 30 min)” value was 43 ± 1.1%. Moreover, in data set [6], the “MLM phase I stability (% remaining after 30 min)” value was determined as 14 ± 0.6%. Moreover, the amount remaining at 0.5 h, 1 μM in data set [2] was 13.8 ± 0.55%. In addition, in [3], the solubility at 24 h is 680 ± 89 µg/mL (≈ 2030 µM). In addition, the Ft in [7] (male mice, 10 mg/kg) amounted to 131.71%. In addition, in data set [7] (setting [11]), the total exposure AUC(0-inf) is 11500 ± 3250 ng·h/mL, the AUC(0-t) is 11400 ± 3280 ng·h/mL, the peak concentration (Cmax) came to 9510 ± 2030 ng/mL and the MRT inf came to 1.27 ± 0.15 h. Moreover, in data set [7] (setting [11]), the MRT last came to 1.14 ± 0.15 h, the time of peak concentration (Tmax) was found to be 30 min and the half-life is 314 ± 147 min. In data set [7] (setting [12]), this compound displayed an area under the curve AUC(0-inf) of 4340 ± 2160 ng·h/mL, an area under the curve AUC(0-t) of 4340 ± 2170 ng·h/mL, a mean residence time (MRT inf) of 1.49 ± 1.72 h and an MRT last of 1.43 ± 1.65 h. In [7] (setting [12]), this compound gave a Vd of 3 ± 4.42 L/kg and a half-life of 172 ± 113 min. In addition, the clearance in [7] (setting [13]) is 23.5 mL/min/kg. In data set [7] (setting [14]), the area under the curve AUC(0-inf) was determined as 25800 ± 7970 ng·h/mL, the area under the curve AUC(0-t) amounted to 25700 ± 8010 ng·h/mL, the Cmax came to 13300 ± 2820 ng/mL and the MRT inf was 1.81 ± 0.94 h. In [7] (setting [14]), the mean residence time (MRT last) stood at 1.74 ± 0.99 h, the Tmax worked out at 25.2 ± 8.4 min, the bioavailability turned out to be 148% and the half-life was 255 ± 214 min. In data set [4], this compound returned an amount remaining at 0.5 h, 1 μM of 43.1 ± 1.1%.
As for `O=C(/N=c1\sccn1Cc1ccccc1)c1n[nH]c2ncccc12` [Compound 5l, (Z)-N-(3-Benzylthiazol-2(3H)-ylidene)-1H-pyrazolo[3,4-b]pyridine-3-carboxamide], in data set [8], the “%Ctrl @ 100 nM, DMPK” value was 6.5 %Ctrl. The “Number hits, S(1)” value in data set [9] (%Ctrl <1) is reported as 0. In addition, the “Number hits, S(10)” value in [9] (%Ctrl <10) came out at 2. In data set [9] (%Ctrl <35), the “Number hits, S(35)” value is given as 3. In addition, in data set [1], the “Stability in human liver microsomes relative to 1, Truli” value is reported as “more than ten times higher stability” and the “HLM phase I stability (% remaining after 30 min)” value was 35 ± 1.3%. In addition, the “%Ctrl @ 100 nM, YSK4” value in [10] came out at 7.1 %Ctrl. Also, in [2], the share remaining at 0.5 h, 1 μM was 0.69 ± 0.17%. Also, the solubility at 24 h in [3] worked out at 290 ± 15 µg/mL (≈ 865 µM). In addition, the Ft in data set [7] (male mice, 10 mg/kg) was 74.36%. In [7] (male mice, PO, 20 mg/kg), the “Ft (bioavailability, F)” value was 43.89%. In [7] (setting [11]), this compound showed an AUC(0-inf) of 4390 ± 710 ng·h/mL, an AUC(0-t) of 4370 ± 720 ng·h/mL, a Cmax of 7300 ± 1880 ng/mL and an MRT inf of 1.14 ± 0.21 h. In [7] (setting [11]), the mean residence time (MRT last) was determined as 0.97 ± 0.12 h, the Tmax was determined as 4.8 min and the half-life is 335 ± 52.8 min. Moreover, in [7] (setting [12]), the area under the curve AUC(0-inf) stood at 2960 ± 150 ng·h/mL, the area under the curve AUC(0-t) turned out to be 2940 ± 180 ng·h/mL, the mean residence time (MRT inf) came to 1.04 ± 0.71 h and the mean residence time (MRT last) came to 0.71 ± 0.25 h. Further, in [7] (setting [12]), the Vd turned out to be 1.8 ± 1.32 L/kg and the half-life was 394 ± 199 min. In data set [7] (setting [13]), this compound showed a clearance of 28.2 mL/min/kg. In data set [7] (setting [14]), this compound registered a total exposure AUC(0-inf) of 5160 ± 590 ng·h/mL, an AUC(0-t) of 5150 ± 590 ng·h/mL, a Cmax of 5740 ± 920 ng/mL and a mean residence time MRT inf of 1.56 ± 0.1 h. Further, in data set [7] (setting [14]), the mean residence time MRT last turned out to be 1.5 ± 0.1 h, the Tmax is 15 min and the half-life is 208 ± 19.8 min. The fraction remaining at 0.5 h, 1 μM in data set [4] was 34.9 ± 1.31%.

Broadly, the fraction remaining is what is left of the initial amount, in per cent. As usually defined, the solubility is how much of the substance goes into solution per volume. The term AUC(0-inf) denotes the area under the concentration-time curve extrapolated to infinity. As a reminder, the AUC(0-t) is the area under the concentration-time curve up to a stated or last time point. The Cmax is the peak of the concentration-time curve. As a reminder, the MRT inf is the average time that molecules of a dose stay in the body. As usually defined, the MRT last is a mean duration of stay, worked out from the concentration-time curve. For orientation: Tmax means the time at which the peak concentration occurs. The half-life is the time needed for the level to fall by half in the phase considered. For orientation: Vd means the apparent volume that relates the amount in the body to the concentration in plasma or blood. By clearance is commonly meant a measure of how efficiently the substance is removed, as volume per time.
